Entries after “also recorded” stand apart in the source; their conditions may differ.
Columns and labels:
HIV-1 LAV [1] = assay: Infectivity of virions from treated HeLa-LAV cells on TZM indicator cells, luciferase assay; type: cell-based
Source text: (§1) In order to examine the infectivity of viruses produced in the presence of these various compounds, the supernatants were harvested, titrated for viral protein p24 release using the Alliance HIV-1 p24 Antigen ELISA (PerkinElmer, http://www.perkinelmer.com/) and titrated to measure the quantity of infectious particles per ml by infecting TZM-bl indicator cells (from the AIDS reagent program, NIH) expressing luciferase under a Tat-dependent promoter. Alternatively for titration of infectious particles, target cells for HIV-1 infection such as MT4 cells were used.
as §1, with “2—Production of Viral particles in the presence of compounds. […] In” for “In”, “are” for “were”, “harvested, stored at −80° C. and” for “harvested,”, “cells” for “cells (from the AIDS reagent program, NIH)”, “are used as described above in 1a.” for “were used.”

HIV-1 integrase = biological target: T1, HIV-1 integrase (Human immunodeficiency virus type 1 group M subtype B, UniProt P12497); assay: Size exclusion chromatography of recombinant HIV-1 integrase on Superdex 200 PC 3.2/30; type: biochemical; conditions: untreated IN elutes as dimer, 64 KD MW; 8 μM IN with 20 μM compound
T1 construct: Superdex 200 16/600 PG column for IN full length; made in house
Description: Multimerization of HIV-1 Integrase upon treatment with inactivating compounds was performed using size exclusion chromatography on a Superdex 200 PC 3.2/30 column (GE Healthcare), as described in the method section. Aldolase (158,000 MW), Conalbumin (75,000 MW), Carbonic Anhydrase (29,000 MW), and Ribonuclease A (13,700 MW) were used as protein markers for calibration.
was performed on a Superdex 200 PC 3.2/30 column (GE Healthcare) using an AKTA chromatography system (GE Healthcare) at 0.04 mL/min at room temperature. 20 μL of sample was injected on the column previously equilibrated in Integrase buffer (50 mM HEPES pH 7.5 containing 1M NaCl, 7 mM CHAPS, 5 mM MgCl2, 10% glycerol). 1 μM Compound was added to the mobile phase in order to avoid integrase-inhibitor dissociation during the separation.

HIV-1 Gag = assay: Western blot of Gag maturation and CA p24 content in producer cell lysates and virions, anti-p24 antibody; type: cell-based; conditions: HeLa-LAV cell lysates and defective virions
HIV-1 LAV [2] = assay: p24 titration of virus harvested from treated HeLa-LAV producer cells; type: cell-based; conditions: HeLa-LAV cells treated during virus production
Source text: as §1
as §1, with “2—Production of Viral particles in the presence of compounds. […] In” for “In”, “are” for “were”, “harvested, stored at −80° C. and” for “harvested,”, “cells” for “cells (from the AIDS reagent program, NIH)”, “are used as described above in 1a.” for “were used.”

HIV-1 LAV [3] = assay: Infectivity of virions from treated HeLa-LAV cells on MT4 cells, cytopathic assay CellTiter-Glo; type: cell-based; conditions: virus stock diluted up to 2000 times
Source text: as §1
(§2) Usually 1/2000 dilution of the virus stock is used to infect MT4 target cells. Productive HIV-1 infection is determined after 5 days using the CellTiter-Glo® luminescent reagent (Promega, France) to quantify MT4 cell viability. Alternatively, productive infection can be estimated by quantitation of p24 antigen as described in paragraph 2 above.

HIV-1 NL4-3 [4] = assay: Infectivity of NL4-3 virus from treated transfected 293T cells on MT4 cells, CellTiter-Glo; type: cell-based; conditions: 293T transfection, compound 48 hours, supernatant diluted 2000 times, MT4 viability
Description: FIG. 4: Infectivity of wt NL4-3 viruses harvested from 293T transfected cells after treatment with the indicated compounds and tested by infection of MT4 cells using the cytopathic assay CellTiter-Glo®.
2 hours after transfection indicated compounds were added during virus production for 48 hours at the indicated concentrations. […] Viruses released in cell supernatants were harvested and tested for virus production by p24 assay, and virus infectivity by infection of MT4 cells and cytophatic assay using CellTiter-Glo® (Promega) according manufacturer's instructions.
293T cells (2.2 10^6 cells) are transfected with plasmids harboring full length cloned HIV proviral DNA such as pNL4-3 or any other HIV proviral clone including autologous HIV molecular clones using DNA transfection reagent such as X-tremeGENE 9 reagent (Roche). Cells are washed 3 h later, trypsinized and diluted at 0.3 10^6 cells per ml. 5 10^5 cells in 1.6 ml fresh culture media are distributed into 6 wells plate and the volume is adjusted to 2 ml by adding 0.4 ml of media containing compounds and DMSO per well, or DMSO only as control. As reference compounds capable to fully inactivate HIV during virus production by producer cells, Protease inhibitors such as Indinavir or Saquinavir are used as additional controls. Final concentration for each compound, including reference protease inhibitor compounds, is kept equivalent to 5 times its EC50 concentration previously calculated into a multiple round assay as in (a) and DMSO is kept at 0.5% final concentration. Supernatants containing HIV virions are collected 48 h post-transfection and stored at −80° C. All Viral stocks are quantified for p24 antigen using the Alliance HIV-1 p24 Antigen ELISA (PerkinElmer, http://www.perkinelmer.com/) and titrated to measure the quantity of infectious particles per ml by infecting TZM-bl indicator cells.
as §2, with “above. Full inactivation of the virus stock by compounds is estimated by results obtained in the presence of compound compared on the one hand to DMSO alone which indicates the 100% infectious virus stock (0% inactivation), and on the other hand to Protease inhibitor treatment which indicates the 100% virus stock inactivation.” for “above.”

HIV-1 NL4-3 [5] = assay: Check of inactivation: multiple-round infection assay of MT4 human cells during five days; type: cell-based; conditions: virus produced with 1 μM compound
Source text: (§3) To do so, HIV-1 NL4-3 virus was produced upon 293T cell transfection using Opti-Mem® reagent (Life Technologies) according manufacturer's instructions. […] Cell supernatants containing virus were ultracentrifuged through sucrose cushion. Virus pellets were resuspended in cell culture medium, aliquoted and titrated for CA p24 amount using anti-p24 antibody (Innotest HIV antigen/mAB Immunogenetics/Ingen Ghent, Belgium or Alliance® HIV-I p24 ELISA kit PerkinElmer).

HIV-1 NL4-3 [6] = assay: Western blot of NL4-3 virus lysates with anti-p24, anti-RT and anti-IN antibodies; type: cell-based; conditions: anti-IN, versus wt virus treated with DMSO
HIV-1 NL4-3 [7] = assay: CA p24 titration of NL4-3 virus produced by 293T cells in the presence of compound; type: cell-based; conditions: 1 μM compound in 0.5% DMSO, 48 hours; untreated virus 19.6 μg/ml
Description: The assay shown in FIG. 6 measures the concentration of whole virus particles (p24 ng/ml on the Y axis) captured on plates coated with various anti-HIV antibodies at three different concentrations as indicated in the X axis. […] As indicated, two different dilutions of each of these virus preparations were incubated in the antibody-coated plates with the indicated antibodies, for 1 hour. Unbound virions were removed by washing. Virions captured by the indicated antibodies were lysed and quantitated by p24 assay by ELISA (Innogenetics/Ingen, Ghent Belgium). The anti-HIV antibodies used were a neutralizing polyclonal IgG F6 Gri/Ii, an irrelevant IgG F6 Neg (negative control), two monoclonal anti-HIV Env antibodies, 2G12 (neutralizing) and 4B3 (non-neutralizing), and an irrelevant monoclonal antibody (Synagis) as negative control.
as §3

Row | SMILES | infectivity of viruses produced in the presence of compound (HIV-1 LAV [1]) | perturbation of Gag maturation and CA p24 content (HIV-1 Gag) | amount of p24 produced (HIV-1 LAV [2]; versus DMSO) | infectivity / cytopathic effect of viruses produced in the presence of compound (HIV-1 LAV [3]) | inactivation of NL4-3 virus produced in the presence of compound (HIV-1 NL4-3 [4]) | also measured
1 | Cc1nc2cc(-c3cccnc3)ccc2c(-c2ccc3c(c2)CCCO3)c1C(OC(C)(C)C)C(=O)O (stereo not drawn) [MUT145212] | non-infectious | could not detect any perturbation of Gag maturation and CA p24 content | comparable to that in the presence of DMSO | totally impaired for such cytopathic effect |  | MW at which HIV-1 integrase is eluted (IN tetramer) (HIV-1 integrase): 130 KD MW
2 | Cc1nc2c(-c3cccc(C(N)=O)c3)cccc2c(-c2ccc3c(c2)CCCO3)c1C(OC(C)(C)C)C(=O)O (stereo not drawn) [MUT145227] | non-infectious | could not detect any perturbation of Gag maturation and CA p24 content | comparable to that in the presence of DMSO | totally impaired for such cytopathic effect |  | 
3 | Cc1nc2cc(C(N)=O)ccc2c(-c2ccc3c(c2)CCCO3)c1C(OC(C)(C)C)C(=O)O (stereo not drawn) [MUT145240] |  |  |  |  |  | MW at which HIV-1 integrase is eluted (IN tetramer) (HIV-1 integrase): 130 KD MW
4 | Cc1nc2c(c(-c3ccc4c(c3)CCCO4)c1C(OC(C)(C)C)C(=O)O)CCCC2 (stereo not drawn) [MUT145509] | non-infectious | could not detect any perturbation of Gag maturation and CA p24 content | comparable to that in the presence of DMSO | totally impaired for such cytopathic effect | inactivated | 
5 | Cc1sc(-c2ccncc2)c(C2=CCC(C)(C)CC2)c1[C@H](OC(C)(C)C)C(=O)O [MUT148237] |  |  |  |  | inactivated | excess of inactivated virus over untreated virus needed to infect 100,000 cells (HIV-1 NL4-3 [5]): more than 10,000 times; extent of virus inactivation (HIV-1 NL4-3 [5]): > 99.99%; amount of p24 of virus supernatant needed for infection of 50% of MT4 cells (HIV-1 NL4-3 [5]; untreated virus 0.11 pg): 5,139 pg; protein content and maturation profile of treated virus (HIV-1 NL4-3 [6]): protein content and maturation profile identical to wt virus; also recorded: exactly the same profile, with normal protein content and protein maturation than fully infectious virus; CA p24 titer of virus inactivated during production (HIV-1 NL4-3 [7]): 17.6 µg/mL
6 | Cc1nnc(C(=O)NC(C)(C)c2nc(C(=O)NCc3ccc(F)cc3)c(O)c(=O)n2C)o1 [Raltegravir, reference compound] | comparable to viruses produced in the presence of DMSO |  |  | fully infectious | no effect | 
7 | CC(C)(C)NC(=O)[C@@H]1C[C@@H]2CCCC[C@@H]2CN1C[C@@H](O)[C@H](Cc1ccccc1)NC(=O)[C@H](CC(N)=O)NC(=O)c1ccc2ccccc2n1 [Saquinavir, reference compound] | non infectious |  |  | totally impaired for such cytopathic effect | inactivated | amount of p24 produced (HIV-1 LAV [2]): 30%; protein content and maturation profile of treated virus (HIV-1 NL4-3 [6]): strong defect in maturation; protein content and maturation profile of treated virus (HIV-1 NL4-3 [6]; listed as saquinavir): strong defect in maturation and absence of RT and IN mature proteins

From patent US20160375127A1, “Method of producing an inactivated lentivirus, especially HIV, vaccine, kit and method of use” (LABORATOIRE BIODIM, priority 2013, published 2016)
